In PubChem BioAssay (NCI):
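The compound was tested at five concentrations on cells cultured in 96-well plates, with a 48-hour exposure period. The concentration for full growth arrest is given as TGI.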

Tests used:
Test in all cases: inhibition of tumour cell growth, NCI panel, 48 h
SF-268 CNS = test system: SF-268 CNS
HL-60(TB) leukemia = test system: HL-60(TB) leukemia
TK-10 renal = test system: TK-10 renal
LOX IMVI melanoma = test system: LOX IMVI melanoma
MOLT-4 leukemia = test system: MOLT-4 leukemia
PC-3 prostate = test system: PC-3 prostate
HS 578T breast = test system: HS 578T breast
NCI-H23 lung = test system: NCI-H23 lung
IGROV1 ovarian = test system: IGROV1 ovarian
SK-OV-3 ovarian = test system: SK-OV-3 ovarian
ACHN renal = test system: ACHN renal
HCT-15 colon = test system: HCT-15 colon
M14 melanoma = test system: M14 melanoma
MDA-MB-435 = test system: MDA-MB-435
SR leukemia = test system: SR leukemia
MALME-3M melanoma = test system: MALME-3M melanoma
RXF 393 renal = test system: RXF 393 renal
SK-MEL-5 melanoma = test system: SK-MEL-5 melanoma
UACC-257 melanoma = test system: UACC-257 melanoma
SK-MEL-2 melanoma = test system: SK-MEL-2 melanoma
CCRF-CEM leukemia = test system: CCRF-CEM leukemia
HCT-116 colon = test system: HCT-116 colon
NCI-H226 lung = test system: NCI-H226 lung
SF-539 CNS = test system: SF-539 CNS
UO-31 renal = test system: UO-31 renal
U251 CNS = test system: U251 CNS
HT29 colon = test system: HT29 colon
786-0 renal = test system: 786-0 renal
T-47D breast = test system: T-47D breast
MDA-N = test system: MDA-N
A498 renal = test system: A498 renal
OVCAR-3 ovarian = test system: OVCAR-3 ovarian
MDA-MB-231 breast = test system: MDA-MB-231 breast
SN12C renal = test system: SN12C renal
COLO 205 colon = test system: COLO 205 colon
SNB-19 CNS = test system: SNB-19 CNS
K-562 leukemia = test system: K-562 leukemia
NCI/ADR-RES ovarian = test system: NCI/ADR-RES ovarian
UACC-62 melanoma = test system: UACC-62 melanoma
CAKI-1 renal = test system: CAKI-1 renal
EKVX NSCLC = test system: EKVX NSCLC
KM12 colon = test system: KM12 colon
BT-549 breast = test system: BT-549 breast
SK-MEL-28 melanoma = test system: SK-MEL-28 melanoma
MCF7 breast = test system: MCF7 breast
HOP-62 NSCLC = test system: HOP-62 NSCLC
OVCAR-5 ovarian = test system: OVCAR-5 ovarian
SW-620 colon = test system: SW-620 colon
DU-145 prostate = test system: DU-145 prostate
OVCAR-8 ovarian = test system: OVCAR-8 ovarian
RPMI-8226 leukemia = test system: RPMI-8226 leukemia
OVCAR-4 ovarian = test system: OVCAR-4 ovarian
HOP-92 NSCLC = test system: HOP-92 NSCLC
A549 NSCLC = test system: A549 NSCLC
NCI-H460 lung = test system: NCI-H460 lung
SF-295 CNS = test system: SF-295 CNS
NCI-H522 lung = test system: NCI-H522 lung
SNB-75 CNS = test system: SNB-75 CNS

`O=C(c1ccco1)N(C(=S)OCc1ccccn1)c1ccccc1` was tested, and the TGI (SF-268 CNS) was over 100 µM, the TGI (HL-60(TB) leukemia) was over 100 µM and the TGI (TK-10 renal) was over 100 µM. The TGI (LOX IMVI melanoma) was over 100 µM, the TGI (MOLT-4 leukemia) was over 100 µM and the TGI (PC-3 prostate) was over 100 µM. The TGI (HS 578T breast) was over 100 µM, the TGI (NCI-H23 lung) was over 100 µM and the TGI (IGROV1 ovarian) was over 100 µM. The TGI (SK-OV-3 ovarian) was over 100 µM, the TGI (ACHN renal) was over 100 µM and the TGI (HCT-15 colon) was over 100 µM. It also gave a TGI (M14 melanoma) of over 100 µM, a TGI (MDA-MB-435) of over 100 µM and a TGI (SR leukemia) of 8.58 µM. For the same compound, the TGI (MALME-3M melanoma) was 79.2 µM, the TGI (RXF 393 renal) was over 100 µM and the TGI (SK-MEL-5 melanoma) was over 100 µM. The TGI (UACC-257 melanoma) was over 100 µM, the TGI (SK-MEL-2 melanoma) was over 100 µM and the TGI (CCRF-CEM leukemia) was over 100 µM. It also gave a TGI (HCT-116 colon) of over 100 µM, a TGI (NCI-H226 lung) of over 100 µM and a TGI (SF-539 CNS) of over 100 µM. It also gave a TGI (UO-31 renal) of over 100 µM, a TGI (U251 CNS) of over 100 µM and a TGI (HT29 colon) of over 100 µM. The TGI (786-0 renal) was over 100 µM, the TGI (T-47D breast) was over 100 µM and the TGI (MDA-N) was over 100 µM. The TGI (A498 renal) was over 100 µM, the TGI (OVCAR-3 ovarian) was over 100 µM and the TGI (MDA-MB-231 breast) was over 100 µM. The TGI (SN12C renal) was over 100 µM, the TGI (COLO 205 colon) was over 100 µM and the TGI (SNB-19 CNS) was over 100 µM. For the same compound, the TGI (K-562 leukemia) was over 100 µM, the TGI (NCI/ADR-RES ovarian) was over 100 µM and the TGI (UACC-62 melanoma) was over 100 µM. The TGI (CAKI-1 renal) was over 100 µM, the TGI (EKVX NSCLC) was over 100 µM and the TGI (KM12 colon) was over 100 µM. For the same compound, the TGI (BT-549 breast) was over 100 µM, the TGI (SK-MEL-28 melanoma) was over 100 µM and the TGI (MCF7 breast) was over 100 µM. For the same compound, the TGI (HOP-62 NSCLC) was over 100 µM, the TGI (OVCAR-5 ovarian) was over 100 µM and the TGI (SW-620 colon) was over 100 µM. For the same compound, the TGI (DU-145 prostate) was over 100 µM, the TGI (OVCAR-8 ovarian) was over 100 µM and the TGI (RPMI-8226 leukemia) was over 100 µM.
With `NC(N)=N/N=C/c1nc2sccn2c1[N+](=O)[O-]` the TGI (SF-268 CNS) was over 100 µM, the TGI (HL-60(TB) leukemia) was 34.1 µM and the TGI (TK-10 renal) was over 100 µM. For the same compound, the TGI (LOX IMVI melanoma) was 56.1 µM, the TGI (PC-3 prostate) was over 100 µM and the TGI (HS 578T breast) was 98.4 µM. The TGI (NCI-H23 lung) was 36.7 µM, the TGI (IGROV1 ovarian) was over 100 µM and the TGI (SK-OV-3 ovarian) was over 100 µM. For the same compound, the TGI (ACHN renal) was over 100 µM, the TGI (HCT-15 colon) was over 100 µM and the TGI (M14 melanoma) was 52.7 µM. It also gave a TGI (MDA-MB-435) of 39.9 µM, a TGI (SR leukemia) of over 100 µM and a TGI (MALME-3M melanoma) of 26.3 µM. For the same compound, the TGI (OVCAR-4 ovarian) was 33.6 µM, the TGI (RXF 393 renal) was 36.9 µM and the TGI (SK-MEL-5 melanoma) was 33.9 µM. The TGI (UACC-257 melanoma) was 31.7 µM, the TGI (SK-MEL-2 melanoma) was 41.8 µM and the TGI (HOP-92 NSCLC) was over 100 µM. It also gave a TGI (A549 NSCLC) of over 100 µM, a TGI (HCT-116 colon) of 59.6 µM and a TGI (NCI-H226 lung) of over 100 µM. It also gave a TGI (SF-539 CNS) of over 100 µM, a TGI (UO-31 renal) of over 100 µM and a TGI (U251 CNS) of over 100 µM. It also gave a TGI (HT29 colon) of 67.7 µM, a TGI (786-0 renal) of over 100 µM and a TGI (T-47D breast) of 65.1 µM. It also gave a TGI (MDA-N) of 39.1 µM, a TGI (A498 renal) of over 100 µM and a TGI (OVCAR-3 ovarian) of 50.5 µM. It also gave a TGI (MDA-MB-231 breast) of 80.5 µM, a TGI (SN12C renal) of over 100 µM and a TGI (COLO 205 colon) of 29.7 µM. For the same compound, the TGI (SNB-19 CNS) was over 100 µM, the TGI (K-562 leukemia) was 85.8 µM and the TGI (NCI/ADR-RES ovarian) was over 100 µM. The TGI (UACC-62 melanoma) was over 100 µM, the TGI (CAKI-1 renal) was over 100 µM and the TGI (EKVX NSCLC) was over 100 µM. The TGI (KM12 colon) was 47.6 µM, the TGI (NCI-H460 lung) was 40.9 µM and the TGI (BT-549 breast) was over 100 µM. It also gave a TGI (SK-MEL-28 melanoma) of over 100 µM, a TGI (SF-295 CNS) of over 100 µM and a TGI (MCF7 breast) of 36.4 µM. The TGI (HOP-62 NSCLC) was over 100 µM, the TGI (OVCAR-5 ovarian) was over 100 µM and the TGI (NCI-H522 lung) was 89.9 µM. The TGI (SW-620 colon) was over 100 µM, the TGI (DU-145 prostate) was 57.1 µM and the TGI (OVCAR-8 ovarian) was over 100 µM. It also gave a TGI (SNB-75 CNS) of 39.5 µM and a TGI (RPMI-8226 leukemia) of over 100 µM.
